# PubChem BioAssay (NCI)
#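 Grown in 96-well plates, cells were treated for 48 hours with each compound at five concentrations. Insufficient inhibition: endpoint recorded as highest concentration tested. TGI marks complete inhibition of growth.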 Where a SMILES comes first, the peptide text is derived from it. Bridges are numbered along the chain shown (N, C = ends). [ ]: non-standard residue; d: D form. The star is where a group is joined. ξ: configuration not given here. X26 = O=C(/C=C/C=C/C=C/C=C/C=C/C(=O)*)NC1=C(O)CCC1=O; Pro(4R-Me) = C[C@H]1CN[C@H](C(=O)O)C1; NMeA = CN[C@@H](C)C(=O)O; ξF = NC(Cc1ccccc1)C(=O)O; ξA = CC(N)C(=O)O
# How the values were obtained:
# Experiment in all cases: NCI tumour cell line growth inhibition, 48 h
# MCF7 breast = system: MCF7 breast
# UO-31 renal = system: UO-31 renal
# COLO 205 colon = system: COLO 205 colon
# LOX IMVI melanoma = system: LOX IMVI melanoma
# SF-539 CNS = system: SF-539 CNS
# A498 renal = system: A498 renal
# NCI-H23 lung = system: NCI-H23 lung
# BT-549 breast = system: BT-549 breast
# K-562 leukemia = system: K-562 leukemia
# NCI/ADR-RES ovarian = system: NCI/ADR-RES ovarian
# SK-MEL-28 melanoma = system: SK-MEL-28 melanoma
# 786-0 renal = system: 786-0 renal
# NCI-H460 lung = system: NCI-H460 lung
# RXF 393 renal = system: RXF 393 renal
# OVCAR-5 ovarian = system: OVCAR-5 ovarian
# SK-MEL-2 melanoma = system: SK-MEL-2 melanoma
# MDA-MB-435 = system: MDA-MB-435
# M14 melanoma = system: M14 melanoma
# SW-620 colon = system: SW-620 colon
# SK-OV-3 ovarian = system: SK-OV-3 ovarian
# CCRF-CEM leukemia = system: CCRF-CEM leukemia
# OVCAR-3 ovarian = system: OVCAR-3 ovarian
# ACHN renal = system: ACHN renal
# SNB-19 CNS = system: SNB-19 CNS
# HCT-15 colon = system: HCT-15 colon
# MALME-3M melanoma = system: MALME-3M melanoma
# UACC-62 melanoma = system: UACC-62 melanoma
# SN12C renal = system: SN12C renal
# TK-10 renal = system: TK-10 renal
# DU-145 prostate = system: DU-145 prostate
# HS 578T breast = system: HS 578T breast
# MDA-MB-231 breast = system: MDA-MB-231 breast
# RPMI-8226 leukemia = system: RPMI-8226 leukemia
# U251 CNS = system: U251 CNS
# IGROV1 ovarian = system: IGROV1 ovarian
# A549 NSCLC = system: A549 NSCLC
# SNB-75 CNS = system: SNB-75 CNS
# UACC-257 melanoma = system: UACC-257 melanoma
# SF-268 CNS = system: SF-268 CNS
# MOLT-4 leukemia = system: MOLT-4 leukemia
# HOP-92 NSCLC = system: HOP-92 NSCLC
# KM12 colon = system: KM12 colon
# SK-MEL-5 melanoma = system: SK-MEL-5 melanoma
# HL-60(TB) leukemia = system: HL-60(TB) leukemia
# HOP-62 NSCLC = system: HOP-62 NSCLC
# OVCAR-4 ovarian = system: OVCAR-4 ovarian
# MDA-N = system: MDA-N
# SF-295 CNS = system: SF-295 CNS
# HCT-116 colon = system: HCT-116 colon
# T-47D breast = system: T-47D breast
# SR leukemia = system: SR leukemia
# PC-3 prostate = system: PC-3 prostate
# HT29 colon = system: HT29 colon
# OVCAR-8 ovarian = system: OVCAR-8 ovarian
# NCI-H522 lung = system: NCI-H522 lung
# HCC-2998 colon = system: HCC-2998 colon
# EKVX NSCLC = system: EKVX NSCLC
# CAKI-1 renal = system: CAKI-1 renal
smiles,measurement,setting,value
Clc1cc(OC23CC4CC(CC(C4)C2)C3)nc(Cl)n1,TGI,MCF7 breast,> 100 µM
same,TGI,UO-31 renal,87.5 µM
same,TGI,COLO 205 colon,> 100 µM
same,TGI,LOX IMVI melanoma,36.1 µM
same,TGI,SF-539 CNS,> 100 µM
same,TGI,A498 renal,> 100 µM
same,TGI,NCI-H23 lung,> 100 µM
same,TGI,BT-549 breast,> 100 µM
same,TGI,K-562 leukemia,> 100 µM
same,TGI,NCI/ADR-RES ovarian,> 100 µM
same,TGI,SK-MEL-28 melanoma,> 100 µM
same,TGI,786-0 renal,> 100 µM
same,TGI,NCI-H460 lung,> 100 µM
same,TGI,RXF 393 renal,85.8 µM
same,TGI,OVCAR-5 ovarian,> 100 µM
same,TGI,SK-MEL-2 melanoma,> 100 µM
same,TGI,MDA-MB-435,> 100 µM
same,TGI,M14 melanoma,> 100 µM
same,TGI,SW-620 colon,> 100 µM
same,TGI,SK-OV-3 ovarian,> 100 µM
same,TGI,CCRF-CEM leukemia,86.2 µM
same,TGI,OVCAR-3 ovarian,> 100 µM
same,TGI,ACHN renal,> 100 µM
same,TGI,SNB-19 CNS,> 100 µM
same,TGI,HCT-15 colon,> 100 µM
same,TGI,MALME-3M melanoma,> 100 µM
same,TGI,UACC-62 melanoma,> 100 µM
same,TGI,SN12C renal,> 100 µM
same,TGI,TK-10 renal,> 100 µM
same,TGI,DU-145 prostate,> 100 µM
same,TGI,HS 578T breast,54.3 µM
same,TGI,MDA-MB-231 breast,> 100 µM
same,TGI,RPMI-8226 leukemia,> 100 µM
same,TGI,U251 CNS,> 100 µM
same,TGI,IGROV1 ovarian,> 100 µM
same,TGI,A549 NSCLC,> 100 µM
same,TGI,SNB-75 CNS,> 100 µM
same,TGI,UACC-257 melanoma,> 100 µM
same,TGI,SF-268 CNS,> 100 µM
same,TGI,MOLT-4 leukemia,> 100 µM
same,TGI,HOP-92 NSCLC,3.5 µM
same,TGI,KM12 colon,> 100 µM
same,TGI,SK-MEL-5 melanoma,> 100 µM
same,TGI,HL-60(TB) leukemia,29.7 µM
same,TGI,HOP-62 NSCLC,> 100 µM
same,TGI,OVCAR-4 ovarian,> 100 µM
same,TGI,MDA-N,> 100 µM
same,TGI,SF-295 CNS,> 100 µM
same,TGI,HCT-116 colon,> 100 µM
same,TGI,T-47D breast,> 100 µM
same,TGI,SR leukemia,48.4 µM
same,TGI,PC-3 prostate,> 100 µM
same,TGI,HT29 colon,> 100 µM
same,TGI,OVCAR-8 ovarian,> 100 µM
same,TGI,NCI-H522 lung,> 100 µM
same,TGI,HCC-2998 colon,29.6 µM
same,TGI,EKVX NSCLC,> 100 µM
CC1NC(=O)[C@H](C)N(C)C(=O)[C@@H]2CCCN2C(=O)[C@@H](NC(=O)C(Cc2ccccc2)NC(=O)/C=C/C=C/C=C/C=C/C=C/C(=O)NC2=C(O)CCC2=O)COC(=O)[C@@H]2C[C@@H](C)CN2C1=O (stereo partly drawn) (X26-[ξF]SP[NMeA][ξA][Pro(4R-Me)]; ester 2-C),TGI,MCF7 breast,> 100 µM
same,TGI,UO-31 renal,> 100 µM
same,TGI,COLO 205 colon,> 100 µM
same,TGI,LOX IMVI melanoma,> 100 µM
same,TGI,SF-539 CNS,> 100 µM
same,TGI,A498 renal,> 100 µM
same,TGI,NCI-H23 lung,> 100 µM
same,TGI,BT-549 breast,> 100 µM
same,TGI,K-562 leukemia,> 100 µM
same,TGI,NCI/ADR-RES ovarian,> 100 µM
same,TGI,SK-MEL-28 melanoma,> 100 µM
same,TGI,CAKI-1 renal,> 100 µM
same,TGI,786-0 renal,> 100 µM
same,TGI,NCI-H460 lung,> 100 µM
same,TGI,RXF 393 renal,> 100 µM
same,TGI,OVCAR-5 ovarian,> 100 µM
same,TGI,SK-MEL-2 melanoma,> 100 µM
same,TGI,MDA-MB-435,> 100 µM
same,TGI,M14 melanoma,> 100 µM
same,TGI,SW-620 colon,> 100 µM
same,TGI,SK-OV-3 ovarian,> 100 µM
same,TGI,CCRF-CEM leukemia,> 100 µM
same,TGI,OVCAR-3 ovarian,> 100 µM
same,TGI,ACHN renal,> 100 µM
same,TGI,SNB-19 CNS,> 100 µM
same,TGI,HCT-15 colon,> 100 µM
same,TGI,MALME-3M melanoma,> 100 µM
same,TGI,UACC-62 melanoma,> 100 µM
same,TGI,SN12C renal,> 100 µM
same,TGI,TK-10 renal,> 100 µM
same,TGI,DU-145 prostate,> 100 µM
same,TGI,HS 578T breast,> 100 µM
same,TGI,MDA-MB-231 breast,> 100 µM
same,TGI,RPMI-8226 leukemia,> 100 µM
same,TGI,U251 CNS,> 100 µM
same,TGI,IGROV1 ovarian,> 100 µM
same,TGI,A549 NSCLC,> 100 µM
same,TGI,SNB-75 CNS,> 100 µM
same,TGI,UACC-257 melanoma,> 100 µM
same,TGI,SF-268 CNS,> 100 µM
same,TGI,HOP-92 NSCLC,> 100 µM
same,TGI,KM12 colon,> 100 µM
same,TGI,SK-MEL-5 melanoma,> 100 µM
same,TGI,HL-60(TB) leukemia,> 100 µM
same,TGI,HOP-62 NSCLC,> 100 µM
same,TGI,OVCAR-4 ovarian,> 100 µM
same,TGI,MDA-N,> 100 µM
same,TGI,SF-295 CNS,> 100 µM
same,TGI,HCT-116 colon,> 100 µM
same,TGI,T-47D breast,> 100 µM
same,TGI,SR leukemia,> 100 µM
same,TGI,PC-3 prostate,> 100 µM
same,TGI,HT29 colon,> 100 µM
same,TGI,NCI-H522 lung,> 100 µM
same,TGI,HCC-2998 colon,> 100 µM
same,TGI,EKVX NSCLC,> 100 µM
